Reference: the NIST ThermoML archive (doi:10.1016/j.fluid.2010.02.020)
Where “and” joins values, the source holds several entries; their conditions need not be identical. Equal values may be shown once. ± gives the expanded uncertainty stated by the source.

Conditions: for surface tension liquid-gas: Pendant drop shape; for mass density: 101.33 kPa, Liquid, Vibrating tube method

CCCCCCCCCCCCCCn1cc[n+](C)c1.O=S(=O)([N-]S(=O)(=O)C(F)(F)F)C(F)(F)F
Conditions	mass density [kg/m3]	surface tension liquid-gas [mN/m]
312.8 K	–	26.3 ± 1
323.15 K	1193.1 ± 4.8	–
323.3 K	–	24.9 ± 1
333.15 K	1184.8 ± 4.8	–
333.2 K	–	23.5 ± 1
333.9 K	–	24.1 ± 1.1
343.15 K	1176.6 ± 4.7	–
353.15 K	1168.5 ± 4.7	–
353.3 K	–	23.5 ± 1
354 K	–	23.7 ± 1
363.15 K	1160.5 ± 4.7	–
373.15 K	1152.4 ± 4.6	–
373.5 K	–	22.1 ± 1.1
374 K	–	22.6 ± 1.1
383.15 K	1144.4 ± 4.6	–
393.15 K	1136.4 ± 4.6	–
393.6 K	–	21.5 ± 1
394.7 K	–	21.3 ± 1
403.15 K	1128.4 ± 4.5	–
413.15 K	1120.4 ± 4.5	–
413.5 K	–	20.9 ± 1
414.9 K	–	19.7 ± 1
423.15 K	1112.4 ± 4.5	–
433.15 K	1104.3 ± 4.4	–
433.6 K	–	18.7 ± 1
434.8 K	–	19.6 ± 1
443.15 K	1096.2 ± 4.4	–
453.15 K	1088 ± 4.4	–
453.6 K	–	17.5 ± 1
454.5 K	–	17.9 ± 1
463.15 K	1079.7 ± 4.3	–
473.15 K	1071.4 ± 4.3	–
473.5 K	–	16.6 ± 1
474.5 K	–	17 ± 1
493.4 K	–	15.9 ± 1
512.9 K	–	15.5 ± 1

CCCCCCCCCCCCn1cc[n+](C)c1.O=S(=O)([N-]S(=O)(=O)C(F)(F)F)C(F)(F)F
Conditions	mass density [kg/m3]	surface tension liquid-gas [mN/m]
293.15 K	1249.6 ± 5	–
303.15 K	1240.9 ± 5	–
313.15 K	1232.4 ± 4.9	–
323.15 K	1224 ± 4.9	–
333.15 K	1215.6 ± 4.9	–
333.3 K	–	26.4 ± 1
343.15 K	1207.4 ± 4.8	–
353.15 K	1199.2 ± 4.8	–
353.6 K	–	25.4 ± 1
363.15 K	1190.9 ± 4.8	–
373.15 K	1182.8 ± 4.7	–
373.7 K	–	24.5 ± 1
383.15 K	1174.7 ± 4.7	–
393.15 K	1166.2 ± 4.7	–
393.6 K	–	23.6 ± 1
403.15 K	1158.4 ± 4.6	–
413.15 K	1150.2 ± 4.6	–
413.7 K	–	22.5 ± 1
423.15 K	1142 ± 4.6	–
433.15 K	1133.7 ± 4.5	–
433.6 K	–	21.4 ± 1
453.8 K	–	20.4 ± 1
473.7 K	–	19.5 ± 1
493.3 K	–	18.8 ± 1
512.9 K	–	17.8 ± 1
532.6 K	–	16.9 ± 1

CCCCCCCCCCn1cc[n+](C)c1.O=S(=O)([N-]S(=O)(=O)C(F)(F)F)C(F)(F)F
Conditions	mass density [kg/m3]	surface tension liquid-gas
293.15 K	1284.9 ± 5.2	–
303.15 K	1276 ± 5.1	–
313.15 K	1267.4 ± 5.1	–
313.2 K	–	28.7 ± 1.1 mN/m
313.3 K	–	29.1 ± 1.1 mN/m
314.1 K	–	27.7 ± 1.1 mN/m
323.15 K	1258.8 ± 5.1	–
333 K	–	26.7 ± 1.1 mN/m
333.15 K	1250.3 ± 5	–
333.3 K	–	27 ± 1.1 mN/m
333.6 K	–	28.1 ± 1.1 mN/m
343.15 K	1241.8 ± 5	–
352.7 K	–	27 ± 1.2 mN/m
353.15 K	1233.5 ± 4.9	–
353.2 K	–	25.4 ± 1.2 mN/m
353.3 K	–	25.3 ± 1.2 mN/m
363.15 K	1225.1 ± 4.9	–
372.6 K	–	26.3 ± 1.2 mN/m
373.15 K	1216.7 ± 4.9	–
373.3 K	–	24.3 ± 1.2 mN/m
373.4 K	–	24.5 ± 1.1 mN/m
383.15 K	1208.4 ± 4.8	–
392.4 K	–	24.9 ± 1.1 mN/m and 24.6 ± 1.1 mN/m
393.15 K	1200 ± 4.8	–
393.3 K	–	23.5 ± 1.1 mN/m
403.15 K	1191.7 ± 4.8	–
412.3 K	–	23.5 ± 1.1 mN/m
412.5 K	–	23.6 ± 1.1 mN/m
413.15 K	1183.3 ± 4.7	–
413.5 K	–	22.4 ± 1.1 mN/m
423.15 K	1174.8 ± 4.7	–
432.2 K	–	22.9 ± 1 mN/m
433 K	–	22.2 ± 1.1 mN/m
433.15 K	1166.4 ± 4.7	–
433.3 K	–	21.5 ± 1.1 mN/m
443.15 K	1157.8 ± 4.6	–
452.8 K	–	22.2 ± 1.4 mN/m
452.9 K	–	21.2 ± 1.2 mN/m
453.15 K	1148.9 ± 4.6	–
453.2 K	–	20.4 ± 1.4 mN/m
463.15 K	1140.2 ± 4.6	–
472.7 K	–	21.1 ± 1.2 mN/m
472.8 K	–	19.1 ± 1 mN/m
473.15 K	1131.4 ± 4.5	–
473.3 K	–	19.3 ± 1.2 mN/m
492.5 K	–	20.1 ± 1.2 mN/m
493.1 K	–	18.5 ± 1.2 mN/m
513.8 K	–	17.5 ± 1 mN/m
533.2 K	–	16.9 ± 1 mN/m

CCCCCn1cc[n+](C)c1.O=S(=O)([N-]S(=O)(=O)C(F)(F)F)C(F)(F)F
Conditions	mass density [kg/m3]	surface tension liquid-gas
293.15 K	1408.1 ± 5.7	–
303.15 K	1398.7 ± 5.6	–
312.7 K	–	29.5 ± 1.1 mN/m
313.15 K	1389.4 ± 5.6	–
313.2 K	–	30.5 ± 1.1 mN/m
323.15 K	1380.3 ± 5.5	–
333.15 K	1371.2 ± 5.5	–
333.2 K	–	28.3 ± 1 mN/m
343.15 K	1362.1 ± 5.5	–
353.15 K	1353.1 ± 5.4	–
353.4 K	–	27.3 ± 1 mN/m
353.7 K	–	27.2 ± 1 mN/m
363.15 K	1344 ± 5.4	–
373.15 K	1335 ± 5.4	–
373.5 K	–	26.3 ± 1 mN/m
373.7 K	–	26.6 ± 1 mN/m
383.15 K	1325.9 ± 5.3	–
393.15 K	1316.8 ± 5.3	–
393.7 K	–	24.7 ± 1 mN/m and 25.6 ± 1 mN/m
403.15 K	1307.6 ± 5.3	–
413.15 K	1298.4 ± 5.2	–
413.6 K	–	24.6 ± 1 mN/m
413.8 K	–	23.5 ± 1 mN/m
423.15 K	1288.6 ± 5.2	–
433.15 K	1279.7 ± 5.1	–
433.5 K	–	22.6 ± 1 mN/m
433.7 K	–	23.7 ± 1 mN/m
443.15 K	1270.3 ± 5.1	–
453.15 K	1260.8 ± 5.1	–
453.5 K	–	21.7 ± 1 mN/m
453.6 K	–	22.8 ± 1 mN/m
463.15 K	1251.1 ± 5	–
473.15 K	1241.3 ± 5	–
473.3 K	–	21.1 ± 1.1 mN/m
473.6 K	–	21.7 ± 1.1 mN/m
493 K	–	21.6 ± 1 mN/m
493.2 K	–	20.8 ± 1 mN/m
512.9 K	–	20.1 ± 1 mN/m
